Source: ChEMBL document CHEMBL1147250, “Enhancement of the antiplasmodial activity of quassin by transformation into a gamma-lactone” (J Nat Prod, 2003)

Legend:
Plasmodium falciparum [1] = experiment: Antiplasmodial activity against Plasmodium falciparum K1
[2] = Selectivity index, ratio of IC50 for human KB cells to IC50 for Plasmodium falciparum K1; format: toxicity, cell-based; conditions: KB cells (cytotoxicity) versus Plasmodium falciparum K1, read-out: Selectivity Index
Plasmodium falciparum [3] = experiment: Antiplasmodial activity against chloroquine-resistant Plasmodium falciparum K1 infected erythrocytes by [3H]hypoxanthine uptake; format: functional, organism-based

SMILES	IC50 (Plasmodium falciparum [1])	selectivity ratio [2]	IC50 (Plasmodium falciparum [3])
COC1=C[C@@H](C)[C@@H]2C[C@H]3OC(OC(=O)c4cccc(Cl)c4)[C@H](O)[C@H]4C(C)=C(OC)C(=O)[C@H]([C@@]2(C)C1=O)[C@]43C (some centres not stated)	1.8 µM	112	232 µM
CC[C@H]1CN2CCc3cc(OC)c(OC)cc3[C@@H]2C[C@@H]1C[C@H]1NCCc2cc(OC)c(OC)cc21			0.96 µM
COC1=C[C@@H](C)[C@@H]2C[C@H]3OC(=O)[C@H](O)[C@H]4C(C)=C(OC)C(=O)[C@H]([C@@]2(C)C1=O)[C@]43C	930 µM	> 1.1	> 1000 µM
COC1=C[C@@H](C)[C@@H]2C[C@H]3OC=C[C@H]4C(C)=C(OC)C(=O)[C@H]([C@@]2(C)C1=O)[C@@]34C [ANHYDROQUASSIN]	809 µM	> 1	> 1000 µM
CCN(CC)CCCC(C)Nc1ccnc2cc(Cl)ccc12 (configuration not stated) [CHLOROQUINE PHOSPHATE]	0.6 µM		
COC1=C[C@@H](C)[C@@H]2C[C@H]3OC(O)[C@H](O)[C@H]4C(C)=C(OC)C(=O)[C@H]([C@@]2(C)C1=O)[C@]43C (some centres not stated) [HYDROXYNEOQUASSINS]	68 µM		
COC1=C[C@@H](C)[C@@H]2C[C@H]3OC(OC4C[C@H]5C(C)=C(OC)C(=O)[C@@H]6[C@@]7(C)C(=O)C(OC)=C[C@@H](C)[C@@H]7C[C@@H](O4)[C@]65C)C[C@H]4C(C)=C(OC)C(=O)[C@H]([C@@]2(C)C1=O)[C@@]34C (some centres not stated) [NEOQUASSIN ETHER]	9.7 µM	15.3	149 µM
COC1=C[C@@H](C)[C@@H]2C[C@H]3OC(O)C[C@H]4C(C)=C(OC)C(=O)[C@H]([C@@]2(C)C1=O)[C@@]34C (some centres not stated) [NEOQUASSIN]	473 µM	1.3	615 µM
COC1=C[C@@H](C)[C@@H]2C[C@H]3O[C@@H](O)[C@H]4C(C)=C(OC)C(=O)[C@H]([C@@]2(C)C1=O)[C@]43C [QUASSILACTOL]	65 µM	8.9	576 µM
COC1=C[C@@H](C)[C@@H]2C[C@H]3OC(=O)[C@H]4C(C)=C(OC)C(=O)[C@H]([C@@]2(C)C1=O)[C@]43C [QUASSILACTONE]	23 µM	17.7	406 µM
COC1=C[C@@H](C)[C@@H]2C[C@H]3OC(=O)C[C@H]4C(C)=C(OC)C(=O)[C@H]([C@@]2(C)C1=O)[C@@]34C [QUASSIN]	911 µM	> 1	> 1000 µM
